Experimental findings from US20220378923A1, “BET DEGRADER” (KYOWA KIRIN CO., LTD., priority 2019, published 2022) are described below.

A word on the IC90: it is the point of the concentration-response curve where the effect stands at 90%.

One test concerns SU-DHL-4 cells. Description: Inhibitory effect on cell viability in SU-DHL-4 cell line (Test Example 1). Particulars: Homo sapiens; SU-DHL-4 cells, 72 hours, Cell Counting Kit-8; concentration showing 90% inhibition of cell viability; read-out: SU-DHL-4 Cell Viability Inhibition Rate IC90. The class given is cell-based, human. Here is the method: SU-DHL-4 cells (Code No. ACC 495, Deutsche Sammlung von Mikroorganismen and Zellkulturen GmbH; DSMZ) were cultured at 37° C. using a carbon dioxide incubator (95% air, 5% CO2) in RPMI1640 medium (Code No. 11875-093, Thermo Fisher Scientific) in which inactivated fetal bovine serum (FBS: Code No. 10099-148, Thermo Fisher Scientific) in an amount to give a final concentration of 10 vol % and penicillin/streptomycin solution (PS: […] The cells were passaged twice a week at a volume of 20-40 mL so as to maintain a cell concentration of 1×10^6 cells/mL or less. […] After seeding, the cells were precultured at 37° C. in a carbon dioxide gas incubator for 18 to 25 hours. […] At this time, the final concentration of DMSO was adjusted to be 0.1 vol %. After adding the test compound, the cells were cultured at 37° C. in a carbon dioxide gas incubator for 72 hours. Next, 0.020 mL of Cell Counting Kit-8 (Code No. CK04, DOJINDO) solution diluted 2-fold or 4-fold with phosphate buffered saline (PBS) was added to each well. Color reaction was carried out in a carbon dioxide gas incubator at 37° C. for 2 to 3 hours, and the absorbance at a wavelength of 450 nm was measured using SpectraMax 340PC (Molecular Devices). […] Absorbance of a well containing test compound • B: Absorbance of a well without addition of cells • C: Absorbance of a well without addition of test compound
In general terms: Formazan colour is commonly taken as a measure of viable cells.
With `CCC(=O)N1c2ccccc2[C@H](NCC23CC(C(=O)N4CC(C(=O)Nc5ccc(N[C@@H]6C[C@H](C)N(C(=O)CC)c7ccccc76)cc5)C4)(C2)C3)C[C@@H]1C` (relative stereo) [Compound 17n, 1-(3-((((2S,4R)-2-Methyl-1-propionyl-1,2,3,4-tetrahydroquinolin-4-yl)amino)methyl)bicyclo[1.1.1]pentane-1-carbonyl)-N-(4-(((2S*,4R*)-2-methyl-1-propionyl-1,2,3,4-tetrahydroquinolin-4-yl)amino)phenyl)azetidine-3-carboxamide], the IC90 came to 5.14 nM.

The same test, now with this note: SU-DHL-4 cells, 72 hours, Cell Counting Kit-8; concentration showing 90% inhibition of cell viability; read-out: SU-DHL-4 Cell Viability Inhibition Rate IC90.
On to `Cc1sc2c(c1C)C(c1ccc(C(=O)NC3CCN(C(=O)c4ccc(C5=N[C@@H](CC(=O)OC(C)(C)C)c6nnc(C)n6-c6sc(C)c(C)c65)cc4)CC3)cc1)=N[C@@H](CC(=O)OC(C)(C)C)c1nnc(C)n1-2` [Compound 1i, tert-Butyl 2-((S)-4-{4-[4-(4-{(S)-6-[2-(tert-butoxy)-2-oxoethyl]-2,3,9-trimethyl-6H-thieno[3,2-f][1,2,4]triazolo[4,3-a][1,4]diazepin-4-yl}benzamide)piperidine-1-carbonyl]phenyl}-2,3,9-trimethyl-6H-thieno[3,2-f][1,2,4]triazolo[4,3-a][1,4]diazepin-6-yl)acetate], for which the 90% effect concentration (IC90) was found to be 0.54 nM.
On the same count and under the same terms, with `CCC(=O)N1c2ccccc2[C@H](Nc2ccc(C(=O)N[C@H]3C[C@H](NC(=O)c4ccc(N[C@@H]5C[C@H](C)N(C(=O)CC)c6ccccc65)cc4)C3)cc2)C[C@@H]1C` [Compound 1j, N,N′-[(1r,3r)-Cyclobutane-1,3-diyl]bis(4-{[(2S,4R)-2-methyl-1-propionyl-1,2,3,4-tetrahydroquinolin-4-yl]amino}benzamide)] the figure was 33.1 nM; with `CCC(=O)N1c2ccccc2[C@H](Nc2ccc(C(=O)NCCNC(=O)c3ccc(C4=N[C@@H](CC(=O)OC(C)(C)C)c5nnc(C)n5-c5sc(C)c(C)c54)cc3)cc2)C[C@@H]1C` [Compound 1o, tert-Butyl 2-[(S)-2,3,9-trimethyl-4-(4-{[2-(4-{[(2S,4R)-2-methyl-1-propionyl-1,2,3,4-tetrahydroquinolin-4-yl]amino}benzamide)ethyl]carbamoyl}phenyl)-6H-thieno[3,2-f][1,2,4]triazolo[4,3-a][1,4]diazepin-6-yl]acetate], 3.18 nM; with `Cc1sc2c(c1C)C(c1ccc(NC(=O)CNC(=O)c3ccc(C4=N[C@@H](CC(=O)OC(C)(C)C)c5nnc(C)n5-c5sc(C)c(C)c54)cc3)cc1)=N[C@@H](CC(=O)OC(C)(C)C)c1nnc(C)n1-2` [Compound 2b, tert-Butyl 2-[(S)-4-{4-[2-(4-{(S)-6-[2-(tert-butoxy)-2-oxoethyl]-2,3,9-trimethyl-6H-thieno[3,2-f][1,2,4]triazolo[4,3-a][1,4]diazepin-4-yl}benzamide)acetamide]phenyl}-2,3,9-trimethyl-6H-thieno[3,2-f][1,2,4]triazolo[4,3-a][1,4]diazepin-6-yl]acetate], 1.52 nM.
The same measure, in the same setting: in the case of `CCC(=O)N1c2ccccc2[C@H](Nc2ccc(NC(=O)CCNS(=O)(=O)c3ccc(N[C@@H]4C[C@H](C)N(C(=O)CC)c5ccccc54)cc3)cc2)C[C@@H]1C` [Compound 6e, N-(4-(((2S,4R)-2-Methyl-1-propionyl-1,2,3,4-tetrahydroquinolin-4-yl)amino)phenyl)-3-((4-(((2S,4R)-2-methyl-1-propionyl-1,2,3,4-tetrahydroquinolin-4-yl)amino)phenyl)sulfonamide)propanamide] it was 4.31 nM.
Regarding `CCC(=O)N1c2ccccc2[C@H](Nc2ccc(C(=O)c3cnc4n3CCN(C(=O)c3ccc(N[C@@H]5C[C@H](C)N(C(=O)CC)c6ccccc65)cc3)C4)cc2)C[C@@H]1C` [Compound 6f, 1,1′-((2S,2'S,4R,4R)-(((5,6,7,8-Tetrahydroimidazo[1,2-a]pyrazine-3,7-dicarbonyl)bis(4,1-phenylene))bis(azanediyl))bis(2-methyl-3,4-dihydroquinoline-4,1(2H)-diyl))bis(propan-1-one)], the IC90 worked out at 0.11 nM.
